In patent US11306064B2, “Benzothia(di)azepine compounds and their use as bile acid modulators” (Albireo AB, priority 2018, dated 2022):

Legend:
Human LBAT = molecular target: T1, Human LBAT (Homo sapiens, UniProt Q14973); assay: LBAT (h/m) assay: 3H-taurocholic acid uptake in human LBAT-overexpressing cells; type: cell-based; settings: 0.3 μM 3H-taurocholic acid and 7.5 μM cold taurocholic acid, 20 minutes, read-out: hLBAT IC50
T1 construct: expressed in transfected cells; kept under Geneticin selection
T1 sequence (Q14973 1-349): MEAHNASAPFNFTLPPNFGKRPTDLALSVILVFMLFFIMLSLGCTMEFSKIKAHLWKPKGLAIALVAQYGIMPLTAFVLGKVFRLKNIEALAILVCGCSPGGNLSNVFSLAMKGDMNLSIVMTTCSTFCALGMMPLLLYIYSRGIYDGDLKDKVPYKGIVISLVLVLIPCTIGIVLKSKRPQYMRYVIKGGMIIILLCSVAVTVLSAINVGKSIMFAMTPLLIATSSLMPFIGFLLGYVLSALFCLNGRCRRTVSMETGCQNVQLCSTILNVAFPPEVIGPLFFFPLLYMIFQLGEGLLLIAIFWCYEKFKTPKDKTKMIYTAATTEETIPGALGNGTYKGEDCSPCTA
Procedure, shortened: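 LBAT-overexpressing cells, serum-free MEM-alpha, 20 min at 37° C with inhibitor (3-fold, 10-point) plus 0.3 μM 3H-taurocholic acid and cold taurocholic acid (7.5 μM human; 25 μM mouse), 0.2% DMSO. Stopped on ice, washed with 1 mM unlabelled taurocholate; uptake by scintillation counting.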

Human ASBT = molecular target: T2, Human ASBT (Homo sapiens, UniProt Q12908); assay: ASBT (h/m) assay: 3H-taurocholic acid uptake in human ASBT-overexpressing cells; type: cell-based; settings: 0.25 μM 3H-taurocholic acid and 5 μM cold taurocholic acid, 20 minutes, read-out: hASBT IC50
T2 construct: expressed in transfected cells; kept under Puromycin selection
T2 sequence (Q12908 1-348): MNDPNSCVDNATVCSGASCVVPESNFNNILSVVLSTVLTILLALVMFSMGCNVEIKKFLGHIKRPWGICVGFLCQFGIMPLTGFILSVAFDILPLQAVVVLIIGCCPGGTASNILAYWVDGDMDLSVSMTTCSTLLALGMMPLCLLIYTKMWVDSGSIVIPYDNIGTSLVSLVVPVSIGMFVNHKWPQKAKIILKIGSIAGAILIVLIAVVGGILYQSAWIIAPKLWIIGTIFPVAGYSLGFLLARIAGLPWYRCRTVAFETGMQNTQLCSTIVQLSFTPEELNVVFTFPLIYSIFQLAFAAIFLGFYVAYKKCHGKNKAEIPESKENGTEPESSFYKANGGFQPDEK
Procedure, shortened: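 ASBT-overexpressing cells, seeded 48 h earlier, took up 0.25 µM 3H-taurocholic acid plus 5 µM cold taurocholate for 20 min at 37 °C with inhibitor (10-point 3-fold series, top 10 µM, 0.2% DMSO). Ice stop, washes with cold 1 mM taurocholate in HEPES-HBSS pH 7.4, scintillation counting.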

Row | IC50 (Human LBAT) [nM] | IC50 (Human ASBT) [nM] | Structure (SMILES)
1 | 156 | 57 | CCCCC1(CC)CN(c2ccccc2)c2cc(Br)c(O/C=C/C(=O)O)cc2S(=O)(=O)C1 (single isomer, unassigned) [Example 6, (E)-3-((7-bromo-3-butyl-3-ethyl-1,1-dioxido-5-phenyl-2,3,4,5-tetrahydro-1,5-benzothiazepin-8-yl)oxy)acrylic acid]
2 | 80 | 19 | CCCCC1(CC)CN(c2ccccc2)c2cc(SC)c(O/C=C/C(=O)O)cc2S(=O)(=O)C1 (single isomer, unassigned) [Example 18, (E)-3-((3-butyl-3-ethyl-7-(methylthio)-1,1-dioxido-5-phenyl-2,3,4,5-tetrahydro-1,5-benzothiazepin-8-yl)oxy)acrylic acid]
3 | 8 | 21 | CCCCC1(CC)CN(c2ccccc2)c2cc(SC)c(O/C=C(\F)C(=O)O)cc2S(=O)(=O)C1 (single isomer, unassigned) [Example 43, (Z)-3-((3-butyl-3-ethyl-7-(methylthio)-1,1-dioxido-5-phenyl-2,3,4,5-tetrahydro-1,5-benzothiazepin-8-yl)oxy)-2-fluoroacrylic acid]
4 | 8.1 | 42 | CCCCC1(CC)CN(c2ccccc2)c2cc(Cl)c(O/C=C(\F)C(=O)O)cc2S(=O)(=O)C1 (single isomer, unassigned) [Example 48, (Z)-3-((3-butyl-7-chloro-3-ethyl-1,1-dioxido-5-phenyl-2,3,4,5-tetrahydro-1,5-benzothiazepin-8-yl)oxy)-2-fluoroacrylic acid]
5 | 45 | 48 | CCCCC1(CCCC)CN(c2ccccc2)c2cc(SC)c(O/C=C(\F)C(=O)O)cc2S(=O)(=O)C1 [Example 11, (Z)-3-((3,3-dibutyl-7-(methylthio)-1,1-dioxido-5-phenyl-2,3,4,5-tetrahydro-1,5-benzothiazepin-8-yl)oxy)-2-fluoroacrylic acid]
6 | 9.1 | 257 | CCC1(CC)CN(c2ccccc2)c2cc(SC)c(O/C=C(\F)C(=O)O)cc2S(=O)(=O)C1 [Example 44, (Z)-3-((3,3-diethyl-7-(methylthio)-1,1-dioxido-5-phenyl-2,3,4,5-tetrahydro-1,5-benzothiazepin-8-yl)oxy)-2-fluoroacrylic Acid]
